Test results from patent US20110195910A1, “USE OF TOCOTRIENOL COMPOSITION FOR THE PREVENTION OF CANCER” (DAVOS LIFE SCIENCE PTE. LTD., priority 2008, published 2011).

Columns and labels:
[1] = Pharmacokinetics of γ-tocotrienol in mice (serum, HPLC); type: in vivo, C57BL/6 black mice; conditions: 1 mg γ-T3 i.p.
Protocol: 4.1.4 Pharmacokinetics of γ-Tocotrienol in Mice—C57BL/6 black mice were purchased from The Jackson Laboratory (Bar Harbor, Me., USA). Forty 5-week old mice were given a single dose i.p injection containing 1 mg of γ-T3. Five mice were sacrificed at different time points (10 min, 30 min, 1 h, 3 h, 6 h, 24 h, 48 h and 72 h). Blood samples were collected through cardiac bleeding. To isolate the serum, blood samples were incubated at room temperature for 30 min, followed by centrifugation at 4400 rpm, 4° C. for 30 min. γ-T3 concentration in serum was analyzed using HPLC method below.
4.1.6 γ-Tocotrienol Extraction from Serums, Tumors and Organs—Serums were thawed and sonicated in an ultrasonic bath (Lab Companion, Vernon Hills, Ill., USA) for 5 min, followed by vortexing for 10 s. 100 μl of serum was transferred into IWAKI Pyrex glass tube (Jawa Tengah, Indonesia) containing 900 μl of water. For the tumors and organs preparation, the tissues were homogenized in 1 ml of water using borosilicate glass homogenizer (Fisher scientific, Pittsburgh, Pa.), followed by transferring to Pyrex glass tube. 5 μl of δ-T3 with purity 99% (100 mg of δ-T3 dissolved in 1 ml of ethanol) was used as an internal standard solution and was spiked into the mixture. The tube was vortexed for 10 s and sonicated for 2 min. 4 ml of the butylated hydroxytoluene (BHT) solution (5 mg of BHT in 100 ml of heptane) was added into the tube to minimize the oxidation of target analytes. Liquid-liquid extraction was performed by vortexing vigorously for 10 s. After liquid-liquid extraction, the tubes were centrifuged at 4000 rpm for 5 min in Heraeus Multifuge 3-SR Centrifuge (Newport Pagnell, Buckinghamshire, UK). 3.9 ml of the organic layer was transferred into another Pyrex tube. […]
4.1.7 Determination of γ-Tocotrienol level by high performance liquid chromatography—A normal phase of HPLC method was performed as a modification of procedures known in the art. […] The absorbance of γ-T3 was monitored with a […] set at an excitation wavelength of 290 nm and emission wavelength of 360 nm.

[2] = system: bladder cancer cell line MGH-U1; test: Spheroid formation assay, MGH-U1 cells; type: cell-based
Protocol: 5.1.7 Spheroid formation assay—Spheroid formation assay was performed with a protocol modified from previous study (Folkins C, p3560). Briefly, cells were first trypsinized, washed with 1× PBS and resuspended in DMEM F12 medium. Two hundred cells were added into each well of a 24-well-plate pre-coated with polyHEMA (Sigma, St. Louis, Mo.). Cells will be grown in DMEM/F12 mem (Invitrogen, Carlsbad, Calif.) supplemented with 4 μg/mL insulin (Sigma, St. Louis, Mo.), B27 (Invitrogen, Carlsbad, Calif.), 20 ng/mL EGF (Sigma, St. Louis, Mo.), and 20 ng/mL basic FGF (Invitrogen, Carlsbad, Calif.). Fresh medium with the above supplements was added every day. γ-T3 was added at indicated time points and the number of spheroids was counted at day 14 of the assay or at the end of the treatment. Each experiment was repeated in triplicates and each data point represented the mean and standard derivation.

G361 cells = test: Western blotting of epithelial/mesenchymal markers, G361 cells; type: cell-based; conditions: G361, 24 hrs
Protocol: 1.1.5 Western blotting—Detailed protocols have been described previously and are known in the art. Briefly, cell lysates were prepared by suspending cell pellets in lysis buffer [50 mmol/l Tris-HCl (pH 8.0), 150 mmol/l NaCl, 1% NP40, 0.5% deoxycholate, 0.1% SDS, 1 mg/ml aprotinin, 1 μg/ml leupeptin and 1 mmol/l phenylmethylsulfonyl fluoride]. For nuclear protein extraction, NucBuster™ protein extraction kit was used. Protein concentration was measured using the DC Protein Assay kit (Bio-Rad, Hercules, Calif.). Equal amount of protein (30 μg) was loaded onto a 10% SDS polyacrylamide gel for electrophoresis and then transferred onto a polyvinylidene difluoride membrane (Amersham, Piscataway, N.J.). The membrane was then incubated with primary antibodies for 1 hr at room temperature against E-cadherin (BD Biosciences, Bedford, Mass.), α-catenin, β-catenin, γ-catenin, Id-1, Id-3, EGFR, phosphor-c-jun, phosphor-ATF2, cleaved PARP, vimentin, α-smooth muscle actin, twist (Santa Cruz Biotechnology, Calif.), phosphor-IkB-alpha (Ser32/36), phosphor-IKK alpha (Seri 80)/IKK beta (Ser181), phosphor-SAPK/JNK (Thr183/Tyr185) G9, SAPK/JNK, NF-kB p65 (5A5) (Cell Signaling Technology Inc, Beverly, Mass.), Snail (Abcam). […] Expression of β-actin and histone H1 were assessed as an internal loading control for total cell lysate and nuclear protein lysate respectively.

## CC(C)=CCC/C(C)=C/CC/C(C)=C/CCC1(C)CCc2cc(O)c(C)c(C)c2O1 (stereo not drawn) [γ-T3, 7,8-dimethyltocotrienol]
[1]
  time the plasma level remains constant: at least 72 hours
[1]; before the fall
  plasma γ-T3 level, starting value: 260 ppm
[1]; within 30 min after administration
  plasma γ-T3 level: 50 ppm
[2]
  inhibition in spheroid formation: 100%
G361 cells
  E-cadherin and γ-catenin protein expression: up-regulated
  Snail and mesenchymal markers (vimentin, α-SMA and twist) expression: down-regulated
